Experimental data taken from patent US7303763B2, “Compositions for conjugated estrogens and associated methods” (Watson Laboratories, Inc., priority 2001, dated 2007).

Assay: Accelerated stability study of coated 0.625 mg conjugated estrogens tablets (active compounds and degradation products per USP, LOD)
Format: physicochemical
Details: for Change: initial % found versus 40c
Excerpt: (§1) Stability was monitored under different storage conditions.
as §1

[1] = acrylic-coated 0.625 mg tablets, Lot EXPWS 1251, 10% Eudragit/RS:RL (2:1), Initial
[2] = acrylic-coated tablets, Lot EXPWS 1251, 40c, 75% RH/1m
[3] = acrylic-coated tablets, Lot EXPWS 1251, 40c, 75% RH/2m
[4] = acrylic-coated tablets, Lot EXPWS 1251, 40c, 75% RH/3m
[5] = acrylic-coated tablets, Lot EXPWS 1251, 50c, 75% RH/2 wks
[6] = acrylic-coated tablets, Lot EXPWS 1251, 75% RH/3m
[7] = sugar-coated 0.625 mg tablets, Lot EXPWS 1246, Initial
[8] = sugar-coated tablets, Lot EXPWS 1246, 40c, 75% RH/1 mnth
[9] = sugar-coated tablets, Lot EXPWS 1246, 40c, 75% RH/2 mnth
[10] = sugar-coated tablets, Lot EXPWS 1246, 50c, 75% RH/2 wks

Row | % Found [1] [%] | % Found [2] [%] | % Initial [2] [%] | % Found [3] [%] | % Initial [3] [%] | % Found [4] [%] | % Initial [4] [%] | % Found [5] [%] | % Initial [5] [%] | Change [6] | % Found [7] [%] | % Found [8] [%] | % Initial [8] [%] | % Found [9] [%] | % Initial [9] [%] | % Found [10] [%] | % Initial [10] [%] | Structure (SMILES)
1 | 1.65 | 2.03 | 123.0 | 2.34 | 141.8 | 2.82 | 170.9 | 1.79 | 108.5 | −1.17 | 2.05 | 2.16 | 105.4 | 2.2 | 107.3 | 2.19 | 106.8 | C[C@]12CCc3c(ccc4cc(O)ccc34)[C@@H]1CC[C@H]2O [17a-dihydroequilenin]
2 | 17.9 | 17.9 | 100.0 | 17.6 | 98.3 | 18.1 | 101.1 | 17.4 | 97.2 | −0.2 | 14.0 | 14.3 | 102.1 | 14.5 | 103.6 | 14.5 | 103.6 | C[C@]12CC[C@H]3C(=CCc4cc(O)ccc43)[C@@H]1CC[C@H]2O [17a-dihydroequilin]
3 | 4.6 | 4.7 | 102.2 | 4.7 | 102.2 | 4.8 | 104.3 | 4.5 | 97.8 | −0.2 | 3.8 | 3.9 | 102.6 | 3.9 | 102.6 | 3.8 | 100.0 | C[C@]12CC[C@@H]3c4ccc(O)cc4CC[C@H]3[C@@H]1CC[C@H]2O [17a-estradiol]
4 | 0.77 | 0.97 | 126.0 | 0.86 | 111.7 | 0.68 | 88.3 | 0.67 | 87.0 | 0.09 | 0.56 | 0.58 | 103.6 | 0.44 | 78.6 | 0.63 | 112.5 | C[C@]12CCc3c(ccc4cc(O)ccc34)C1CCC2O (stereo partly drawn) [17b-dihydroequilenin]
5 | 2.3 | 2.6 | 108.7 | 2.4 | 104.3 | 2.4 | 104.3 | 2.2 | 95.7 | −0.1 | 1.3 | 1.3 | 100.0 | 1.4 | 107.7 | 1.3 | 100.0 | C[C@]12CC[C@H]3C(=CCc4cc(O)ccc43)[C@@H]1CC[C@@H]2O [17b-dihydroequilin]
6 | 1.26 | 0.90 | 71.4 | 0.96 | 76.2 | 0.88 | 69.8 | 1.11 | 88.1 | 0.38 | 0.60 | 0.56 | 93.3 | 0.62 | 103.3 | 0.59 | 98.3 | C[C@]12CC[C@@H]3c4ccc(O)cc4CC[C@H]3[C@@H]1CC[C@@H]2O [17b-estradiol]
7 | 4.15 | 4.13 | 99.5 | 4.02 | 96.9 | 3.91 | 94.2 | 4.07 | 98.1 | 0.24 | 4.72 | 4.68 | 99.2 | 4.53 | 96.0 | 4.91 | 104.0 | C[C@]12CCC3=C(CCc4cc(O)ccc43)[C@@H]1CCC2=O [d8,9 dehydroesterone]

Row | Structure (SMILES) | % Found [1] [%] | % Found [2] [%] | % Initial [2] [%] | % Found [3] [%] | % Initial [3] [%] | % Found [4] [%] | % Initial [4] [%] | % Found [5] [%] | % Initial [5] [%] | Change [6] | % Found [7] [%] | % Found [8] [%] | % Initial [8] [%] | % Found [9] [%] | % Initial [9] [%] | % Found [10] [%] | % Initial [10] [%]
8 | C[C@]12CCc3c(ccc4cc(O)ccc34)[C@@H]1CCC2=O [Equilenin] | 2.2 | 2.3 | 104.5 | 2.6 | 118.2 | 3.0 | 136.4 | 2.5 | 113.6 | −0.8 | 2.6 | 2.8 | 107.7 | 2.8 | 107.7 | 2.8 | 107.7
9 | C[C@]12CC[C@H]3C(=CCc4cc(O)ccc43)[C@@H]1CCC2=O [Equilin] | 27.3 | 27.1 | 99.3 | 26.5 | 97.1 | 26.4 | 96.7 | 26.5 | 97.1 | 0.9 | 22.7 | 23.0 | 101.3 | 23 | 101.3 | 23.3 | 102.6
